Measured values published in US20230132133A1, “METHODS AND COMPOSITIONS FOR THE TREATMENT OF C. DIFFICILE” (priority 2018, published 2023).
Values after ≈ are worked out from the molar mass of the structure shown.

Columns and labels:
[1] = tested on: B. amyloliquefaciens ART24; test: Antibiotic MIC following EFSA testing recommendations on lyophilized ART24 lots and cell banks; assay type: cell-based, Bacillus amyloliquefaciens; conditions: for MIC: Bacillus amyloliquefaciens, read-out: MIC for ART24
Description: The minimum inhibitory concentration (MIC) of the listed antimicrobials is expressed as µg/mL.

[2] = tested on: B. amyloliquefaciens ART12; test: MIC of metronidazole and fidaxomicin, CLSI standard method; assay type: cell-based; conditions: Bacillus amyloliquefaciens, triplicates, 16 hours, read-out: MIC against ART12
Protocol: (§1) Briefly, minimum inhibitory concentration assays were carried out in triplicate using 96-well plates (Sarstedt). Two-fold serial dilutions from an initial concentration of 512 µg/mL of each antibiotic were carried out in BHI broth (Merck). An overnight of the target strain was subcultured and incubated to an OD600 nm of 0.5 before being diluted to give a final inoculum of 10^5 cfu/ml in 200 µL and added to the antibiotic preparations. The plates were incubated at an appropriate temperature and inspected after 16 hours. The MIC was determined as the lowest concentration at which no growth was visible.

[3] = tested on: B. amyloliquefaciens ART24; test: as above; assay type: cell-based; conditions: Bacillus amyloliquefaciens, triplicates, 16 hours, read-out: MIC against ART24
Protocol: as §1

[4] = tested on: B. amyloliquefaciens ART4; test: as above; assay type: cell-based; conditions: Bacillus amyloliquefaciens, triplicates, 16 hours, read-out: MIC against ART4
Protocol: as §1

[5] = tested on: B. amyloliquefaciens ART12; test: Antibiotic MIC, VetMIC Lact-1 & Lact-2 panels; assay type: cell-based, Bacillus amyloliquefaciens; conditions: average results from N= 6, 24 hr at 37° C.; for MIC: Bacillus amyloliquefaciens, ART12
Protocol: (§2) The wells of the prefabricated 96-well plates were filled with 100 μL of the final suspension. The plates were sealed with an […], Sigma Aldrich) sealing film (to facilitate growth of the aerobic Bacillus strains. The plates were then incubated for 24 hr at 37° C. The results are recorded after 24 hours as the lowest concentration of the antibiotic to inhibit visible growth. The prefabricated panels […], Uppsala, Sweden) comprising the antibiotics ampicillin, vancomycin, gentamicin, kanamycin, streptomycin, erythromycin, clindamycin, tetracycline, chloramphenicol, neomycin, penicillin, quinupristin-dalfopristin, linezolid, trimethoprim, ciprofloxacin and rifampicin were used.

[6] = tested on: B. amyloliquefaciens ART24; test: Antibiotic MIC, VetMIC Lact-1 & Lact-2 panels; assay type: cell-based, Bacillus amyloliquefaciens; conditions: average results from N= 6, 24 hr at 37° C.; for MIC: Bacillus amyloliquefaciens, ART24
Protocol: as §2

[7] = tested on: B. amyloliquefaciens ART4; test: Antibiotic MIC, VetMIC Lact-1 & Lact-2 panels; assay type: cell-based, Bacillus amyloliquefaciens; conditions: average results from N= 6, 24 hr at 37° C.; for MIC: Bacillus amyloliquefaciens, ART4
Protocol: as §2

Cc1ncc([N+](=O)[O-])n1CCO [Metronidazole, metronidazole]
MIC ([1]; ART24, anaerobic, source CO-33-12A2): 64 µg/mL (≈ 374 µM) | MIC ([1]; ART24, anaerobic, source CO-33 ART 24 BHI): 64 µg/mL (≈ 374 µM) | MIC ([1]; ART24, anaerobic, source CO-33 ART 024 S): 64 µg/mL (≈ 374 µM) | MIC ([1]; ART24, anaerobic, source YD CO-33-10A2): 64 µg/mL (≈ 374 µM) | MIC ([1]; ART24, source CO-33-12A2): > 64 µg/mL | MIC ([1]; ART24, source CO-33 ART 24 BHI): > 64 µg/mL | MIC ([1]; ART24, source CO-33 ART 024 S): > 64 µg/mL | MIC ([1]; ART24, source YD CO-33-10A2): > 64 µg/mL | MIC [2]: 64 µg/mL | MIC [3]: 128 µg/mL | MIC [4]: 128 µg/mL

CO[C@H]1/C=C/O[C@@]2(C)Oc3c(C)c(O)c4c(O)c(c(/C=N/N5CCN(C)CC5)c(O)c4c3C2=O)NC(=O)/C(C)=C\C=C\[C@H](C)[C@H](O)[C@@H](C)[C@@H](O)[C@@H](C)[C@H](OC(C)=O)[C@@H]1C [Rifampicin]
MIC [5]: 0.5 µg/mL (≈ 0.608 µM) | MIC [6]: 0.5 µg/mL (≈ 0.608 µM) | MIC [7]: 0.25 µg/mL (≈ 0.304 µM) | MIC ([1]; ART24, source CO-33-12A2): 0.25 µg/mL (≈ 0.304 µM) | MIC ([1]; ART24, source CO-33 ART 24 BHI): 0.25 µg/mL (≈ 0.304 µM) | MIC ([1]; ART24, source CO-33 ART 024 S): 0.25 µg/mL (≈ 0.304 µM) | MIC ([1]; ART24, source YD CO-33-10A2): 0.25 µg/mL (≈ 0.304 µM) | MIC interpretation for ART24 ([1]; source CO-33-12A2): S | MIC interpretation for ART24 ([1]; source CO-33 ART 24 BHI): S | MIC interpretation for ART24 ([1]; source CO-33 ART 024 S): S | MIC interpretation for ART24 ([1]; source YD CO-33-10A2): S

[H]/N=C(/N)N[C@H]1[C@H](O)[C@@H](O)[C@H](O[C@@H]2O[C@@H](C)[C@](O)(C=O)[C@H]2O[C@@H]2O[C@@H](CO)[C@H](O)[C@@H](O)[C@@H]2NC)[C@@H](N/C(N)=N\[H])[C@@H]1O [Streptomycin]
MIC [5]: 4 µg/mL (≈ 6.88 µM) | MIC [6]: 4 µg/mL (≈ 6.88 µM) | MIC [7]: 4 µg/mL (≈ 6.88 µM) | MIC ([1]; ART24, source CO-33-12A2): 1 µg/mL (≈ 1.72 µM) | MIC ([1]; ART24, source CO-33 ART 24 BHI): 1 µg/mL (≈ 1.72 µM) | MIC ([1]; ART24, source CO-33 ART 024 S): 2 µg/mL (≈ 3.44 µM) | MIC ([1]; ART24, source YD CO-33-10A2): 1 µg/mL (≈ 1.72 µM) | MIC interpretation for ART24 ([1]; source CO-33-12A2): S | MIC interpretation for ART24 ([1]; source CO-33 ART 24 BHI): S | MIC interpretation for ART24 ([1]; source CO-33 ART 024 S): S | MIC interpretation for ART24 ([1]; source YD CO-33-10A2): S

CN(C)[C@@H]1C(O)=C(C(N)=O)C(=O)[C@@]2(O)C(O)=C3C(=O)c4c(O)cccc4[C@@](C)(O)[C@H]3C[C@@H]12 [Tetracycline]
MIC [5]: 8 µg/mL (≈ 18 µM) | MIC [6]: 4 µg/mL (≈ 9 µM) | MIC [7]: 1 µg/mL (≈ 2.25 µM) | MIC ([1]; ART24, source CO-33-12A2): 2 µg/mL (≈ 4.5 µM) | MIC ([1]; ART24, source CO-33 ART 24 BHI): 2 µg/mL (≈ 4.5 µM) | MIC ([1]; ART24, source CO-33 ART 024 S): 2 µg/mL (≈ 4.5 µM) | MIC ([1]; ART24, source YD CO-33-10A2): 2 µg/mL (≈ 4.5 µM) | MIC interpretation for ART24 ([1]; source CO-33-12A2): S | MIC interpretation for ART24 ([1]; source CO-33 ART 24 BHI): S | MIC interpretation for ART24 ([1]; source CO-33 ART 024 S): S | MIC interpretation for ART24 ([1]; source YD CO-33-10A2): S

COc1cc(Cc2cnc(N)nc2N)cc(OC)c1OC [Trimethoprim]
MIC [5]: ≤ 0.12 µg/mL | MIC [6]: ≤ 0.12 µg/mL | MIC [7]: ≤ 0.12 µg/mL | MIC ([1]; ART24, source CO-33-12A2): ≤ 0.25 µg/mL | MIC ([1]; ART24, source CO-33 ART 24 BHI): ≤ 0.25 µg/mL | MIC ([1]; ART24, source CO-33 ART 024 S): ≤ 0.25 µg/mL | MIC ([1]; ART24, source YD CO-33-10A2): ≤ 0.25 µg/mL

Gentamicin
B. amyloliquefaciens MIC ART12 [5]: ≤0.5 µg/mL | B. amyloliquefaciens MIC ART24 [6]: ≤0.5 µg/mL | B. amyloliquefaciens MIC ART4 [7]: ≤0.5 µg/mL | MIC for ART24 ([1]; source CO-33-12A2): ≤ 0.06 µg/mL | MIC interpretation for ART24 ([1]; source CO-33-12A2): S | MIC for ART24 ([1]; source CO-33 ART 24 BHI): ≤ 0.06 µg/mL | MIC interpretation for ART24 ([1]; source CO-33 ART 24 BHI): S | MIC for ART24 ([1]; source CO-33 ART 024 S): ≤ 0.06 µg/mL | MIC interpretation for ART24 ([1]; source CO-33 ART 024 S): S | MIC for ART24 ([1]; source YD CO-33-10A2): ≤ 0.06 µg/mL | MIC interpretation for ART24 ([1]; source YD CO-33-10A2): S

Neomycin
B. amyloliquefaciens MIC ART12 [5]: ≤0.5 µg/mL | B. amyloliquefaciens MIC ART24 [6]: ≤0.5 µg/mL | B. amyloliquefaciens MIC ART4 [7]: ≤0.5 µg/mL | MIC for ART24 ([1]; source CO-33-12A2): ≤0.12 µg/mL | MIC for ART24 ([1]; source CO-33 ART 24 BHI): ≤0.12 µg/mL | MIC for ART24 ([1]; source CO-33 ART 024 S): ≤0.12 µg/mL | MIC for ART24 ([1]; source YD CO-33-10A2): ≤0.12 µg/mL

Penicillin
B. amyloliquefaciens MIC ART12 [5]: 0.5 µg/mL | B. amyloliquefaciens MIC ART24 [6]: 0.12 to 0.5 µg/mL | B. amyloliquefaciens MIC ART4 [7]: 0.12 µg/mL | MIC for ART24 ([1]; source CO-33-12A2): ≤ 0.03 µg/mL | MIC interpretation for ART24 ([1]; source CO-33-12A2): S | MIC for ART24 ([1]; source CO-33 ART 24 BHI): ≤ 0.03 µg/mL | MIC interpretation for ART24 ([1]; source CO-33 ART 24 BHI): S | MIC for ART24 ([1]; source CO-33 ART 024 S): 0.06 µg/mL | MIC interpretation for ART24 ([1]; source CO-33 ART 024 S): S | MIC for ART24 ([1]; source YD CO-33-10A2): ≤ 0.03 µg/mL | MIC interpretation for ART24 ([1]; source YD CO-33-10A2): S

Quinupristin-dalfopristin
B. amyloliquefaciens MIC ART12 [5]: 4 µg/mL | B. amyloliquefaciens MIC ART24 [6]: 4 µg/mL | B. amyloliquefaciens MIC ART4 [7]: 4 µg/mL | MIC for ART24 ([1]; source CO-33-12A2): 2 µg/mL | MIC for ART24 ([1]; source CO-33 ART 24 BHI): 2 µg/mL | MIC for ART24 ([1]; source CO-33 ART 024 S): 2 µg/mL | MIC for ART24 ([1]; source YD CO-33-10A2): 1 µg/mL
